Experimental data published in PMC12430278, “A Simple and Reliable Method for the Determination of Isorhapontigenin in Murine Biological Matrices: Application in a Tissue Distribution Study” (Molecules, 2025).
Read-outs that look alike come from different tables or passages of the source.

Columns and labels:
[1] = Stability of ISO in plasma samples under various storage conditions; format: in vitro ADME; conditions: mouse plasma, read-out: Remaining (%, Mean ± SD)
Source text: (§1) In bioanalysis, analyte stability in biological matrices is crucial for ensuring accurate and reliable quantification. Instability can result in degradation or transformation during sample collection, storage, or processing, potentially compromising data integrity and study outcomes. Therefore, the stability of ISO in plasma was thoroughly evaluated under various storage conditions (Table 5). Assessing ISO stability in intact tissues is challenging, as replicating the native tissue environment is difficult. Accordingly, only short-term stability (6 h on ice) was assessed in tissue homogenates (Table 6). For post-preparative stability, hepatic homogenate—the most complex matrix—was selected as a representative.
For the cleanup of plasma samples, three volumes of acetonitrile (containing IS at 400 ng/mL) were added to one volume of murine plasma to precipitate proteins. After vortexing for 20 s, the samples were centrifuged at 1503× g for 10 min at 4 °C. The supernatant was carefully transferred to a glass insert preloaded in an autosampler vial. During each HPLC analysis, 10 μL of supernatant was injected into the HPLC system. The minimum plasma volume required per analysis was 25 μL.
(§2) The stability of ISO was evaluated under various storage conditions. Stock solution stability was assessed after storage at room temperature (25 °C) and –20 °C. The stability of ISO in plasma was examined under the following conditions: short-term storage (25 °C for 24 h), long-term storage (–80 °C for 52 days), three freeze–thaw cycles, and post-preparative stability (samples kept in an autosampler at 4 °C for more than 24 h). As it is difficult to evaluate ISO stability directly in tissues, only the short-term stability in tissue homogenates was assessed (6 h on ice). Similarly, post-preparative stability in processed tissue samples was assessed using liver homogenate as a representative, due to the complexity of the hepatic matrix. Stability was considered acceptable if 85–115% of the initial ISO concentration remained.

[2] = design: method as in PMID 39456808; conditions: Sprague Dawley rats, two weeks daily oral 100 µmol/kg/day; cited from earlier work
[3] = mice, oral; cited from earlier work
[4] = system: primary airway epithelial cells isolated from patients with chronic obstructive pulmonary disease (COPD); design: method as in PMID 28369685; conditions: RES as comparator; cited from earlier work
[5] = enzymatic-hydrolysis approach; cited from earlier work
[6] = Biodistribution study in mice following oral administration; format: in vivo, C57BL/6 mice
Description: Following oral administration of ISO at a dose of 200 µmol/kg (equivalent to 51.7 mg/kg), three to four mice (n = 3 or 4) were euthanized at each predetermined time point (5, 10, 20, 40, 60, and 80 min), and biological samples were collected. ISO concentrations were quantified using our validated HPLC-UV method. Exposure levels (AUC) in plasma and other individual biological matrices were calculated based on the mean concentrations at each time point.
Specific pathogen-free C57BL/6 mice (male; 6–8 weeks old; weight: 18–21 g) were purchased through Shenzhen Glorybay Biotech Co. (Shenzhen, China). The animals had ad libitum access to food and water prior to dosing. ISO was administered as an aqueous suspension (vehicle: 0.3% sodium carboxymethylcellulose with 0.2% L-ascorbic acid; ISO concentration: 5 mg/mL) via oral gavage at a dose of 200 µmol/kg (equivalent to 51.7 mg/kg, dosing volume: 10.34 mL/kg). At each predetermined time point (5, 10, 20, 40, 60 and 80 min) three to four mice (n = 3 or 4) were euthanized through cervical dislocation. Blood samples were collected into heparinized centrifuge tubes and centrifuged to obtain plasma. Following blood collection, the mice were dissected, and major organs/tissues—including the brain, abdominal fat, heart, small intestine, large intestine, kidney, liver, lung, abdominal muscle, spleen, and stomach—were harvested. The organs and tissues were cut into small pieces and rinsed with isotonic saline before being blotted dry. All collected biological samples were placed on dry ice. At the end of the in vivo study, all samples were stored at –80 °C in a deep freezer until HPLC analysis.
Non-compartmental pharmacokinetic analysis was performed using WinNonlin Standard Version 1.0 (Scientific Consulting Inc., Apex, NC, USA). Plasma and tissue exposure, expressed as the area under the concentration–time curve (AUC), was calculated using the mean values of the individual mice.

[7] = Stability of ISO in tissue homogenates; format: in vitro ADME; conditions: mouse; for remaining at 6 h, 45 ng/mL / remaining at 6 h, 1600 ng/mL: read-out: Stability Remaining (%, Mean ± SD) Short-Term Stability (6 h on Ice)
Source text: as §1
For tissue samples, namely brain, fat, heart, small intestine, large intestine, kidney, liver, lung, muscle, spleen, and stomach, approximately 35 mg of each tissue was weighed and finely minced with scissors. The samples were homogenized in a 0.2% ascorbic acid solution (freshly prepared daily) in 50% methanol (v/v) at a ratio of 1:5 (w/v) for up to three cycles using a high-throughput tissue homogenizer (Wonbio-L, Wonbio, Shanghai, China) operating at 60 Hz for 60 s per cycle. Subsequently, three volumes of acetonitrile (containing IS at 400 ng/mL) were added to one volume of tissue homogenate. Following vigorous vortexing, the samples were centrifuged at 1902× g for 10 min at 15 °C. The clear supernatant was carefully transferred into an HPLC vial.
as §2

COc1cc(/C=C/c2cc(O)cc(O)c2)ccc1O [ISO, trans-3,5,4′-trihydroxy-3′-methoxystilbene]
remaining at 45 ng/mL ([1]; 45.0 ng/mL, after three freeze and thaw cycles): 101 ± 4.4% | remaining at 1248 h, 45 ng/mL ([1]; 45.0 ng/mL, long term-stability (−80 °C for 52 days)): 102 ± 1.9% | remaining at 24 h, 45 ng/mL ([1]; 45.0 ng/mL, post-preparative stability (autosampler at 4 °C for at least 24 h)): 102 ± 2.7% | remaining at 24 h, 45 ng/mL ([1]; 45.0 ng/mL, short-term stability (24 h at room temperature)): 102 ± 3.7% | remaining at 1600 ng/mL ([1]; 1600 ng/mL, after three freeze and thaw cycles): 105 ± 1.1% | remaining at 1248 h, 1600 ng/mL ([1]; 1600 ng/mL, long term-stability (−80 °C for 52 days)): 106 ± 2.1% | remaining at 24 h, 1600 ng/mL ([1]; 1600 ng/mL, post-preparative stability (autosampler at 4 °C for at least 24 h)): 101.7 ± 1% | remaining at 24 h, 1600 ng/mL ([1]; 1600 ng/mL, short-term stability (24 h at room temperature)): 101.7 ± 0.9% | Blood cholesterol levels [2]: healthier blood cholesterol levels | Body weight gain [2]: less body weight gain | Toxicity [2]: no significant toxicity was observed | Time of peak plasma concentrations post-dosing [3]: ≤ 15 min | Anti-COPD activity compared with RES [4]: stronger anti-COPD activity than RES | Glucuronidation [5]: extensive glucuronidation | Sulfation [5]: not detected | Time at which mean concentrations in plasma and multiple tissues peak ([6]; oral suspension, 200 µmol/kg (51.7 mg/kg)): 10 min | Exposure (AUC) ranking across plasma and tissues ([6]; oral, 200 µmol/kg (51.7 mg/kg), AUC from mean concentrations, 5-80 min): stomach > small intestine > liver > large intestine > plasma > kidney > heart > spleen > lung > muscle | Penetration into brain and fat ([6]; oral, 200 µmol/kg, brain and fat samples, quantifiable levels printed as ≥75 ng/mL): only a few reached quantifiable levels | Detectability of ISO in the kidney, liver, and heart over time ([6]; oral, 200 µmol/kg, kidney, liver, heart): undetectable in some mice as early as 20 min | Detectability of ISO in the lung and muscle over time ([6]; oral, 200 µmol/kg, lung, muscle): detectable in the lung and muscle mainly between 10 and 20 min | Quantifiability of ISO in plasma over time ([6]; oral, 200 µmol/kg, plasma): unquantifiable in one out of four mice by 40 min | remaining at 6 h, 45 ng/mL ([7]; brain homogenate, 45.0 ng/mL): 101 ± 2.1% | remaining at 6 h, 1600 ng/mL ([7]; brain homogenate, 1600 ng/mL): 95.9 ± 1.7% | remaining at 6 h, 45 ng/mL ([7]; fat homogenate, 45.0 ng/mL): 101 ± 4.4% | remaining at 6 h, 1600 ng/mL ([7]; fat homogenate, 1600 ng/mL): 96.8 ± 2.5% | remaining at 6 h, 45 ng/mL ([7]; heart homogenate, 45.0 ng/mL): 93.8 ± 3.4% | remaining at 6 h, 1600 ng/mL ([7]; heart homogenate, 1600 ng/mL): 106 ± 2% | remaining at 6 h, 45 ng/mL ([7]; kidney homogenate, 45.0 ng/mL): 96.8 ± 2.6% | remaining at 6 h, 1600 ng/mL ([7]; kidney homogenate, 1600 ng/mL): 97.4 ± 2.8% | remaining at 6 h, 45 ng/mL ([7]; large intestine homogenate, 45.0 ng/mL): 92.6 ± 2.9% | remaining at 6 h, 1600 ng/mL ([7]; large intestine homogenate, 1600 ng/mL): 90.3 ± 3.6% | remaining at 24 h, 45 ng/mL ([7]; liver homogenate, 45.0 ng/mL, read-out: Stability Remaining (%, Mean ± SD) Post-Preparative Stability (More Than 24 h at 4 °C)): 105 ± 2.2% | remaining at 6 h, 45 ng/mL ([7]; liver homogenate, 45.0 ng/mL): 103 ± 2.1% | remaining at 24 h, 1600 ng/mL ([7]; liver homogenate, 1600 ng/mL, read-out: Stability Remaining (%, Mean ± SD) Post-Preparative Stability (More Than 24 h at 4 °C)): 94.9 ± 1% | remaining at 6 h, 1600 ng/mL ([7]; liver homogenate, 1600 ng/mL): 97.8 ± 1.2% | remaining at 6 h, 45 ng/mL ([7]; lung homogenate, 45.0 ng/mL): 97.3 ± 4% | remaining at 6 h, 1600 ng/mL ([7]; lung homogenate, 1600 ng/mL): 101 ± 1.7% | remaining at 6 h, 45 ng/mL ([7]; muscle homogenate, 45.0 ng/mL): 102 ± 5.5% | remaining at 6 h, 1600 ng/mL ([7]; muscle homogenate, 1600 ng/mL): 95 ± 2.5% | remaining at 6 h, 45 ng/mL ([7]; small intestine homogenate, 45.0 ng/mL): 91.8 ± 4.8% | remaining at 6 h, 1600 ng/mL ([7]; small intestine homogenate, 1600 ng/mL): 92.9 ± 3.8% | remaining at 6 h, 45 ng/mL ([7]; spleen homogenate, 45.0 ng/mL): 92.7 ± 6% | remaining at 6 h, 1600 ng/mL ([7]; spleen homogenate, 1600 ng/mL): 94.3 ± 4.3% | remaining at 6 h, 45 ng/mL ([7]; stomach homogenate, 45.0 ng/mL): 95 ± 2.9% | remaining at 6 h, 1600 ng/mL ([7]; stomach homogenate, 1600 ng/mL): 97.2 ± 2.2%
